Data as given in BindingDB's records for doi:10.1021/np0604580 (University of California - San Diego, 2007).

Target: T1, Ornithine decarboxylase (Homo sapiens, UniProt P11926)
T1 sequence (P11926 whole entry): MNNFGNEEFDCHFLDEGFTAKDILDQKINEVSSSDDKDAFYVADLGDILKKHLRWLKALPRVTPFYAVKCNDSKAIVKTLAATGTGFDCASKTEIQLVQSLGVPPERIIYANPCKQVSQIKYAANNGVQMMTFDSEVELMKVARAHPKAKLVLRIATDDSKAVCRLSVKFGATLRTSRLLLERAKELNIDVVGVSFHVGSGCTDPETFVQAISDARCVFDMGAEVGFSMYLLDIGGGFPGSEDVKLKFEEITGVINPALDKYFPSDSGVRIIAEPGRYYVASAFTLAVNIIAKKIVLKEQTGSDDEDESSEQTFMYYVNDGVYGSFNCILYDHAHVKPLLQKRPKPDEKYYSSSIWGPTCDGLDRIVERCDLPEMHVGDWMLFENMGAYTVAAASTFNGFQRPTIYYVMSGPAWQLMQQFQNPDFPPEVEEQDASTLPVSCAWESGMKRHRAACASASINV
Assay: Inhibition of TPA-induced ornithine decarboxylase expressed in T24 cells

IC50 [µM] | Structure (SMILES)
5.05 | C/C(=C/C=C/[C@H](C)[C@H](O)[C@@H](C)[C@@H](O)[C@@H](C)[C@@H]1O[C@@]2(C)CC[C@@H](O2)[C@H]1C)C(N)=O [SALINIKETAL A]
18.9 | C[C@H]([C@H](O)[C@H](C)[C@@H](O)[C@@H](C)/C=C/C=C(/CO)C(N)=O)[C@@H]1O[C@@]2(C)CC[C@@H](O2)[C@H]1C [SALINIKETAL B]
